Read-outs that look alike come from different tables or passages of the source.
How the values were obtained:
S. aureus [1] = assay: Disruption biofilm assay, bacterial; type: cell-based, Staphylococcus aureus; conditions: for inhibition at 1 % / activation at 1 %: Staphylococcus aureus; for inhibition at 1 %: 24 h, read-out: Reduce B Biofilm; for activation at 1 %: read-out: Promote B Biofilm
Method: (§1) Two types of biofilm assays were performed: a sustained inhibition assay and a disruption assay. The sustained inhibition assay assesses the compound's ability to prevent biofilm development throughout all stages of biofilm formation, while the disruption assay assesses the compound's ability to break up an existing mature biofilm. These assays are described in detail in the following article: Lohse, M. B., Gulati, M., Valle Arevalo, A., Fishburn, A., Johnson, A. D., and Nobile, C. […] Antimicrobial Agents and Chemotherapy 61: e02749-16.
(§2) All bacterial biofilm solutions were prepared in Trypic Soy Broth (TSB), supplemented with 1% glucose (henceforth referred to as TSB-G). All subsequent procedures were performed in a manner that maintained sterility. A solution of each amino acid to be tested was prepared in weight to volume concentrations ranging from 0.1-5.0%. Amino acids were also tested in combinations. Compound solutions were homogenized with gentle agitation in the dark (4° C., 24 hours) before use.
(§3) Bacterial strains were streaked on Blood Agar plates (5% sheep blood in Tryptic Soy Agar) and incubated at 37° C. for 24 hours. A single colony from each strain to be tested was inoculated in a TSB broth and grown for 12 hours, at 37° C. with shaking (225 rpm). For the bacterial biofilm inhibition assays, 1 μL of saturated overnight cell culture was added to either 80 μL of TSB-G, or TSB-G supplemented with the amino acid compound solution to be tested, in a 384-well plate. The cells were allowed to adhere to the plate for 60 minutes at 37° C. without shaking. The media was carefully aspirated and 80 μL of TSB-G, or TSB-G supplemented with the amino acid compound solution was added to the plate. The plate was further incubated for 24 hours at 37° C. without shaking. Media was carefully aspirated and the biofilm was measured by optical density at 600 nm. Eight or twelve replicates were performed for each tested condition and the reported values are normalized to the control (TSB-G media only). For the bacterial biofilm disruption assays, 80 μL of TSB-G was added to the plate, along with 1 μL of overnight cell culture. The cells were allowed to adhere to the plate for 60 minutes at 37° C. with no shaking. The media was carefully aspirated and 80 μL of TSB-G was added to the plate. The plate was further incubated for 24 hours at 37° C. with no shaking. Media was carefully aspirated from the mature biofilm and 80 μL of TSB-G, or TSB-G supplemented with the amino acid to be tested, was gently added to the plate. The plate was further incubated for 24 hours at 37° C. without shaking. Media was aspirated and the biofilm was measured by optical density at 600 nm. Twelve replicates were performed for each tested condition and the reported values are normalized to the control (TSB-G media only).

S. aureus [2] = assay: Sustained inhibition biofilm assay, bacterial; type: cell-based, Staphylococcus aureus; conditions: for activation at 1 %: Staphylococcus aureus, read-out: Promote B Biofilm
Method: as §1, §2, §3

bacterial biofilms = assay: Biofilm assays (sustained inhibition and/or disruption), bacterial biofilms; type: cell-based; conditions: in at least one of the two biofilm assays; for Anti-biofilm effect against bacterial biofilms (reduction): administered individually at about 0.1 to about 5.0% weight to volume
Method: (§4) Two types of biofilm assays were performed: a sustained inhibition assay and a disruption assay. The sustained inhibition assay assesses the compound's ability to prevent biofilm development throughout all stages of biofilm formation, while the disruption assay assesses the compound's ability to break up an existing mature biofilm. These assays are described in detail in the following article: Lohse, M. B., Gulati, M., Valle Arevalo, A., Fishburn, A., Johnson, A. D., and Nobile, C. J. (2017) Assessment and optimizations of Candida albicans in vitro biofilm assays. Antimicrobial Agents and Chemotherapy 61: e02749-16.
as §2, with “For fungal biofilm assays, all solutions were prepared in RPMI 1640 medium. All bacterial” for “All bacterial”
(§5) All biofilm assays were performed using 384-well non-tissue culture treated polystyrene plates. The fungal species tested are as follows: Candida albicans, Candida guilhermondii, Candida parapsilosis, Candida glabrata, Candida tropicalis, Candida dubliniensis, and Candida auris. The bacterial species tested are as follows: Staphylococcus aureus (standard wild type and methicillin-resistant strain USA300), Escherichia coli, Pseudomonas aeruginosa and Staphylococcus epidermidis.
as §3

[3] = system: fungal and bacterial biofilms; assay: Biofilm assays (sustained inhibition and disruption), fungal and bacterial biofilms; type: cell-based; conditions: for Effect on biofilms: single component on its own; for Effect on bacterial or fungal biofilms in both assays: sustained inhibition and disruption
Method: as §4
as §2, with “For fungal biofilm assays, all solutions were prepared in RPMI 1640 medium. All bacterial” for “All bacterial”
as §5
(§6) Fungal strains were streaked on Yeast Peptone Dextrose (YPD) agar plates and incubated at 30° C. for 48 hours. A single colony from each strain to be tested was inoculated into YPD broth and grown for 12 hours, at 30° C., shaking at 225 rpm. For the fungal biofilm inhibition assay, 1 μl of saturated overnight cell culture was added to either 80 μL of RPMI-1640 or RPMI-1640 supplemented with the amino acid compound solution to be tested, in a 384-well plate. The cells were allowed to adhere to the plate for 90 minutes at 37° C. with shaking (350 rpm). Loosely bound cells were washed once with phosphate buffered saline (PBS) and 80 ul of RPMI-1640, or RPMI-1640 supplemented with the amino acid compound solution was added to the plate. The plate was further incubated for 24 hours at 37° C. with shaking (350 rpm). Media was carefully aspirated and the biofilm was measured by optical density at 600 nm. Twelve replicates were performed for each tested condition and the reported values are normalized to the control (RPMI-1640 media only). For the fungal biofilm disruption assays, 80 μL of RPMI-1640 was added to the plate, along with 1 μL of overnight cell culture. The cells were allowed to adhere to the plate for 90 minutes at 37° C. with shaking (350 rpm). Loosely bound cells were washed once with PBS and 80 μL of RPMI-1640 was added to the plate. The plate was further incubated for 24 hours at 37° C. with shaking (350 rpm). Media was carefully aspirated from the mature biofilm and 80 μL of RPMI-1640, or RPMI-1640 supplemented with the amino acid compound solution to be tested, was gently added to the plate. The plate was further incubated for 24 hours at 37° C. with shaking (350 rpm). Media was carefully aspirated and the biofilm was measured by optical density at 600 nm. Twelve replicates were performed for each tested condition and the reported values are normalized to the control (RPMI-1640 media only).
Bacterial strains were streaked on Blood Agar plates (5% sheep blood in Tryptic Soy Agar) and incubated at 37° C. for 24 hours. A single colony from each strain to be tested was inoculated in a TSB broth and grown for 12 hours, at 37° C. with shaking (225 rpm).

fungal biofilms = assay: Biofilm assays (sustained inhibition and/or disruption), fungal biofilms; type: cell-based; conditions: administered individually; in at least one of the two biofilm assays
Method: as §4
as §2, with “For fungal biofilm assays, all solutions were prepared in RPMI 1640 medium. All bacterial” for “All bacterial”
as §5, §6

[4] = disruption assay, S. aureus, 1% amino acid (unless specifically noted), p≤0.001
[5] = sustained inhibition assay, S. aureus, 1% amino acid (unless specifically noted), p≤0.001

SMILES	Effect on bacterial biofilm growth (bacterial biofilms)	activation at 1 % (S. aureus [1]; [4]) [%]	activation at 1 % (S. aureus [2]; [5]) [%]	other results
N[C@@H](CCSC[C@H](N)C(=O)O)C(=O)O [Cystathionine (0.2%), L-cystathionine]	–	–	–	inhibition at 1 % (S. aureus [1]; [4]): 10 to 30%
NC(=O)NCCC[C@H](N)C(=O)O [Citrulline, L-citrulline]	support (improve) bacterial biofilm growth	–	–	activation at 1 % (S. aureus [2]): 10 to 30%; activation at 1 % (S. aureus [1]): 10 to 30%
O=C(O)[C@@H]1C[C@@H](O)CN1 [Hydroxyproline, Trans-4-hydroxy-L-proline]	–	–	–	Reduce B Biofilm (S. aureus [2]; [5]): ● (a single dot [ie. •] signifies minor effect (from about 10 to about 30% change)); inhibition at 1 % (S. aureus [1]): 10 to 30%; Anti-biofilm effect against bacterial biofilms (reduction) (bacterial biofilms): less than twofold
N[C@@H](Cc1ccc(O)cc1)C(=O)O [Tyrosine, L-tyrosine]	–	–	–	Effect on biofilms [3]: neutral effect on biofilms; Effect on bacterial or fungal biofilms in both assays [3]: neutral
CC[C@H](C)[C@H](N)C(=O)O [Isoleucine, L-isoleucine]	support (improve) bacterial biofilm growth	10 to 30	–	–
NCCS(=O)(=O)O [Taurine, L-taurine]	support (improve) bacterial biofilm growth	10 to 30	10 to 30	–
N[C@@H](Cc1c[nH]cn1)C(=O)O [Histidine, L-histidine]	–	–	–	Effect on bacterial or fungal biofilms in both assays [3]: neutral
N[C@@H](Cc1ccccc1)C(=O)O [Phenylalanine, L-phenylalanine]	support (improve) bacterial biofilm growth	10 to 30	10 to 30	–
NCC(=O)O [Glycine, L-glycine]	support (improve) bacterial biofilm growth	10 to 30	10 to 30	–
C[C@H](N)C(=O)O [Alanine, L-alanine]	support (improve) bacterial biofilm growth	10 to 30	–	–
CC(C)C[C@H](N)C(=O)O [Leucine, L-leucine]	support (improve) bacterial biofilm growth	10 to 30	10 to 30	–
N[C@@H](Cc1c[nH]c2ccccc12)C(=O)O [Tryptophan, L-tryptophan]	–	–	–	Effect on bacterial or fungal biofilms in both assays [3]: neutral
NC(=O)C[C@H](N)C(=O)O [Asparagine, L-asparagine]	support (improve) bacterial biofilm growth	–	10 to 30	–
NCCOP(=O)(O)O [Phosphoethanolamine, 0-phosphoethanolamine]	–	–	–	Reduce B Biofilm (S. aureus [2]; [5]): ● (a single dot [ie. •] signifies minor effect (from about 10 to about 30% change)); Reduce B Biofilm (S. aureus [1]; [4]): ● (a single dot [ie. •] signifies minor effect (from about 10 to about 30% change)); Anti-biofilm effect against bacterial biofilms (reduction) (bacterial biofilms): less than twofold
NCCC[C@H](N)C(=O)O [Ornithine, L-ornithine]	support (improve) bacterial biofilm growth	10 to 30	10 to 30	–
OCC(O)CO [glycerol]	–	–	–	Effect on biofilms [3]: not found to have antibiofilm effects
CSCC[C@H](N)C(=O)O [Methionine, L-methionine]	support (improve) bacterial biofilm growth	–	10 to 30	–
NCCCC[C@H](N)C(=O)O [Lysine, L-lysine]	support (improve) bacterial biofilm growth	–	–	activation at 1 % (S. aureus [2]): 10 to 30%; activation at 1 % (S. aureus [1]): 10 to 30%
NC(CCCC(=O)O)C(=O)O (stereo not drawn) [2 Aminoadipic Acid, 2-aminoadipic acid]	–	–	–	Reduce B Biofilm (S. aureus [2]; [5]): ● (a single dot [ie. •] signifies minor effect (from about 10 to about 30% change)); inhibition at 1 % (S. aureus [1]; [4]): 10 to 30%; Anti-biofilm effect against bacterial biofilms (reduction) (bacterial biofilms): less than twofold
N[C@@H](CCS)C(=O)O [Homocysteine (0.4%), L-homocysteine]	–	–	–	Anti-biofilm effect against fungal biofilms (reduction) (fungal biofilms): less than twofold
C[C@@H](O)[C@H](N)C(=O)O [Threonine, L-threonine]	support (improve) bacterial biofilm growth	–	10 to 30	–
Cn1cnc(C[C@H](N)C(=O)O)c1 [1-Methylhistidine, 1-methyl-L-histidine]	–	–	–	Effect on bacterial or fungal biofilms in both assays [3]: neutral
NCCC(=O)O [Beta-Alanine, Beta-alanine]	–	–	–	Reduce B Biofilm (S. aureus [2]; [5]): ● (a single dot [ie. •] signifies minor effect (from about 10 to about 30% change)); Anti-biofilm effect against bacterial biofilms (reduction) (bacterial biofilms): less than twofold
CCC(N)C(=O)O (stereo not drawn) [2 Aminobutyric Acid, 2-aminobutyric acid]	–	–	–	Effect on bacterial or fungal biofilms in both assays [3]: neutral
N[C@@H](CO)C(=O)O [Serine, L-serine]	support (improve) bacterial biofilm growth	10 to 30	10 to 30	–
N=C(N)NCCC[C@H](N)C(=O)O [Arginine, L-arginine]	support (improve) bacterial biofilm growth	–	–	activation at 1 % (S. aureus [2]): 10 to 30%; activation at 1 % (S. aureus [1]): 10 to 30%

Reference: US11779559B2, “Compositions for treating fungal and bacterial biofilms and methods of using the same” (priority 2017, dated 2023)
